Results published in paper PMC11243685, “Synthesis and Enzymatic Evaluation of a Small Library of Substituted Phenylsulfonamido-Alkyl Sulfamates towards Carbonic Anhydrase II” (Molecules, 2024).

Molecular target: T1, bovine carbonic anhydrase II (Bos taurus, UniProt P00921)
T1 construct: carbonic anhydrase II (bCAII, ≥3000 W-A units/mg from bovine erythrocytes) from Sigma; purchased Sigma (Taufkirchen, Germany); host or cells: isolated from bovine erythrocytes
T1 sequence (P00921 whole entry): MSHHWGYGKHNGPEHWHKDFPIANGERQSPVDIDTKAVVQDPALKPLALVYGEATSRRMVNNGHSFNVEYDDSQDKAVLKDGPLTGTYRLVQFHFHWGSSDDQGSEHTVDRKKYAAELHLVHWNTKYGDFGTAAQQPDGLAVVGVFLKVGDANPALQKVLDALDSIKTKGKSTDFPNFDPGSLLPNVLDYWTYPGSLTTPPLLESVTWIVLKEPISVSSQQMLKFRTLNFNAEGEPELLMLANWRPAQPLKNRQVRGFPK
Assay: Enzymatic assay of bCA II inhibition, absorbance at 415 nm;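 note: enzyme is carbonic anhydrase II isolated from bovine erythrocytes, with its activity followed photometrically at 415 nm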
Type: biochemical
Settings: CA II; from Lineweaver–Burk, Dixon and Cornish Bowden plots; read-out: Inhibition constant Ki
Method: The enzymatic assays have been performed with carbonic anhydrase II (bCAII, ≥3000 W-A units/mg from bovine erythrocytes) from Sigma (Taufkirchen, Germany) using a BMG Labtech Spectrostar Omega apparatus (BMG Labtech, Ortenberg, Germany) measuring λ = 415 nm. Conditions have been described previously [72]. Ki and Ki′ values were determined from Lineweaver–Burk, Dixon and Cornish Bowden plots, respectively.
In the case of `CC(C)c1cccc(S(=O)(=O)NCCOS(N)(=O)=O)c1` [40b, 2-[(3-Isopropylphenyl)sulfonamido]ethyl Sulfamate], the Ki is reported as 1640 ± 30 nM.
Molecule `Cc1ccccc1S(=O)(=O)NCCCCCCOS(N)(=O)=O` [30b, 6-[(2-Methylphenyl)sulfonamido]hexyl Sulfamate] has a Ki of 1580 ± 20 nM.

Same assay, conditions: bCA II; 1 μM concentration of the inhibitor; triplicate with three technical replicas
Work on `CC(C)c1ccccc1S(=O)(=O)NCCCCCCCCOS(N)(=O)=O` [48b, 8-[(2-Isopropylphenyl)sulfonamido]octyl Sulfamate] yielded an inhibition at 1 µM of 34.2 ± 0.7%.
With `CC(C)(C)c1cccc(S(=O)(=O)NCCCCCCCOS(N)(=O)=O)c1` [63b, 7-[(3-(tert-Butyl)phenyl)sulfonamido]heptyl Sulfamate] the inhibition at 1 µM was 33.3 ± 0.3%.
With `NS(=O)(=O)OCCCCCCCCNS(=O)(=O)c1ccc(C2CCCCC2)cc1` [74b, 8-[(4-Cyclohexylphenyl)sulfonamido]octyl Sulfamate] the inhibition at 1 µM was 14.2 ± 1.1%.
`CC(C)c1ccccc1S(=O)(=O)NCCCCCCCOS(N)(=O)=O` [47b, 7-[(2-Isopropylphenyl)sulfonamido]heptyl Sulfamate] showed an inhibition at 1 µM of 38.4 ± 0.2%.
Molecule `CC(C)c1cccc(S(=O)(=O)NCCOS(N)(=O)=O)c1` [40b, 2-[(3-Isopropylphenyl)sulfonamido]ethyl Sulfamate] has an inhibition at 1 µM of 63.7 ± 0.1%.
`CC(C)(C)c1cccc(S(=O)(=O)NCCCCCOS(N)(=O)=O)c1` [61b, 5-[(3-(tert-Butyl)phenyl)sulfonamido]pentyl Sulfamate] showed an inhibition at 1 µM of 39.2 ± 0.1%.
`CC(C)c1cccc(S(=O)(=O)NCCCCCCOS(N)(=O)=O)c1` [44b, 6-[(3-Isopropylphenyl)sulfonamido]hexyl Sulfamate] showed an inhibition at 1 µM of 45.5 ± 0.7%.
Molecule `CC(C)c1cccc(S(=O)(=O)NCCCOS(N)(=O)=O)c1` [41b, 3-[(3-Isopropylphenyl)sulfonamido]propyl Sulfamate] has an inhibition at 1 µM of 50.1 ± 0.9%.
With `Cc1ccccc1S(=O)(=O)NCCCCCCCCOS(N)(=O)=O` [32b, 8-[(2-Methylphenyl)sulfonamido]octyl Sulfamate] the inhibition at 1 µM was 56.2 ± 0.8%.
Molecule `CC(C)(C)c1cccc(S(=O)(=O)NCCCOS(N)(=O)=O)c1` [59b, 3-[(3-(tert-Butyl)phenyl)sulfonamido]propyl Sulfamate] has an inhibition at 1 µM of 53.9 ± 0.3%.
For `NS(=O)(=O)OCCNS(=O)(=O)c1ccccc1` [1b, 2-(Phenylsulfonamido]ethyl Sulfamate], the inhibition at 1 µM was 59.2 ± 0.8%.
Work on `CC(C)c1cccc(S(=O)(=O)NCCCCOS(N)(=O)=O)c1` [42b, 4-[(3-Isopropylphenyl)sulfonamido]butyl Sulfamate] yielded an inhibition at 1 µM of 35.3 ± 0.5%.
`NS(=O)(=O)OCCCCCNS(=O)(=O)c1ccccc1` [4b, 5-(Phenylsulfonamido]pentyl Sulfamate] gave an inhibition at 1 µM of 51.8 ± 0.7%.
In the case of `NS(=O)(=O)OCCCCCNS(=O)(=O)c1ccc(C2CCCCC2)cc1` [71b, 5-[(4-Cyclohexylphenyl)sulfonamido]pentyl Sulfamate], the inhibition at 1 µM is reported as 18.6 ± 1%.
Work on `Cc1ccccc1S(=O)(=O)NCCCCCCCOS(N)(=O)=O` [31b, 7-[(2-Methylphenyl)sulfonamido]heptyl Sulfamate] yielded an inhibition at 1 µM of 55.6 ± 0.7%.
Work on `CC(C)c1cccc(S(=O)(=O)NCCCCCOS(N)(=O)=O)c1` [43b, 5-[(3-Isopropylphenyl)sulfonamido]pentyl Sulfamate] yielded an inhibition at 1 µM of 44.4 ± 0.3%.
Work on `Cc1ccccc1S(=O)(=O)NCCCCOS(N)(=O)=O` [28b, 4-[(2-Methylphenyl)sulfonamido]butyl Sulfamate] yielded an inhibition at 1 µM of 37.9 ± 0.7%.
`NS(=O)(=O)OCCCCNS(=O)(=O)c1ccccc1` [3b, 4-(Phenylsulfonamido]butyl Sulfamate] gave an inhibition at 1 µM of 32.2 ± 0.3%.
Work on `CC(C)(C)c1ccccc1S(=O)(=O)NCCCCCOS(N)(=O)=O` [65b, 5-[(2-(tert-Butyl)phenyl)sulfonamido]pentyl Sulfamate] yielded an inhibition at 1 µM of 56.2 ± 0.8%.
For `Cc1ccccc1S(=O)(=O)NCCCCCOS(N)(=O)=O` [29b, 5-[(2-Methylphenyl)sulfonamido]pentyl Sulfamate], the inhibition at 1 µM was 57.2 ± 0.7%.
`CC(C)(C)c1ccccc1S(=O)(=O)NCCCCCCCOS(N)(=O)=O` [67b, 7-[(2-(tert-Butyl)phenyl)sulfonamido]heptyl Sulfamate] gave an inhibition at 1 µM of 27.5 ± 0.3%.
Molecule `CC(C)(C)c1cccc(S(=O)(=O)NCCCCCCOS(N)(=O)=O)c1` [62b, 6-[(3-(tert-Butyl)phenyl)sulfonamido]hexyl Sulfamate] has an inhibition at 1 µM of 41.7 ± 0.8%.
For `NS(=O)(=O)OCCCCNS(=O)(=O)c1ccc(C2CCCCC2)cc1` [70b, 4-[(4-Cyclohexylphenyl)sulfonamido]butyl Sulfamate], the inhibition at 1 µM was 34.7 ± 2.5%.
`CC(C)(C)c1ccccc1S(=O)(=O)NCCCCCCOS(N)(=O)=O` [66b, 6-[(2-(tert-Butyl)phenyl)sulfonamido]hexyl Sulfamate] showed an inhibition at 1 µM of 34.5 ± 0.4%.
For `NS(=O)(=O)OCCCCCCCNS(=O)(=O)c1ccc(C2CCCCC2)cc1` [73b, 7-[(4-Cyclohexylphenyl)sulfonamido]heptyl Sulfamate], the inhibition at 1 µM was 14.8 ± 0.4%.
In the case of `NS(=O)(=O)OCCCCCCCCCCNS(=O)(=O)c1ccc(C2CCCCC2)cc1` [76b, 10-[(4-Cyclohexylphenyl)sulfonamido]decyl Sulfamate], the inhibition at 1 µM is reported as 19.7 ± 1.6%.
For `CC(C)c1cccc(S(=O)(=O)NCCCCCCCCOS(N)(=O)=O)c1` [46b, 8-[(3-Isopropylphenyl)sulfonamido]octyl Sulfamate], the inhibition at 1 µM was 29.5 ± 0.9%.
For `NS(=O)(=O)OCCNS(=O)(=O)c1ccc(C2CCCCC2)cc1` [68b, 2-[(4-Cyclohexylphenyl)sulfonamido]ethyl Sulfamate], the inhibition at 1 µM was 52.1 ± 1.2%.
With `CC(C)c1cccc(S(=O)(=O)NCCCCCCCOS(N)(=O)=O)c1` [45b, 7-[(3-Isopropylphenyl)sulfonamido]heptyl Sulfamate] the inhibition at 1 µM was 37 ± 0.3%.
Molecule `CC(C)(C)c1cccc(S(=O)(=O)NCCOS(N)(=O)=O)c1` [58b, 2-[(3-(tert-Butyl)phenyl)sulfonamido]ethyl Sulfamate] has an inhibition at 1 µM of 54 ± 0.9%.
`CC(C)(C)c1cccc(S(=O)(=O)NCCCCOS(N)(=O)=O)c1` [60b, 4-[(3-(tert-Butyl)phenyl)sulfonamido]butyl Sulfamate] gave an inhibition at 1 µM of 43.3 ± 0.6%.
`Cc1ccccc1S(=O)(=O)NCCCCCCOS(N)(=O)=O` [30b, 6-[(2-Methylphenyl)sulfonamido]hexyl Sulfamate] showed an inhibition at 1 µM of 68.1 ± 0.3%.

Tested on: not given
Assay: not given
Settings: not given
With `CC(C)(C)c1ccc(S(=O)(=O)NCCCCCCCCCCO)cc1` [57a, 4-(tert-Butyl)-N-(10-hydroxydecyl)benzene Sulfonamide] the melting point was 75 to 76 °C.
In the case of `O=S(=O)(NCCCCCCCCCCO)c1ccccc1` [9a, N-(10-Hydroxydecyl)benzene Sulfonamide], the melting point is reported as 67 to 69 °C.
In the case of `CC(C)(C)c1ccc(S(=O)(=O)NCCCCO)cc1` [51a, 4-(tert-Butyl)-N-(4-hydroxybutyl)benzene Sulfonamide], the melting point is reported as 58 to 60 °C.
For `O=S(=O)(NCCCCCCCCO)c1ccc(C23CC4CC(CC(C4)C2)C3)cc1` [77a, 4-(Adamantan-1-yl)-N-(8-hydroxyoctyl)benzene Sulfonamide], the melting point was 101 to 102 °C.
`O=S(=O)(NCCCCCCCCCO)c1ccccc1` [8a, N-(9-Hydroxynonyl)benzene Sulfonamide] gave a melting point of 40 to 41 °C.
With `Cc1ccc(S(=O)(=O)NCCCO)cc1` [13a, N-(3-Hydroxypropyl)-4-methylbenzene Sulfonamide] the melting point was 55 to 57 °C.
In the case of `Cc1ccc(S(=O)(=O)NCCCCCCCCO)cc1` [18a, N-(8-Hydroxyoctyl)-4-methylbenzene Sulfonamide], the melting point is reported as 87 to 88 °C.
With `O=S(=O)(NCCCCCCCCO)c1ccccc1` [7a, N-(8-Hydroxyoctyl)benzene Sulfonamide] the melting point was 59 to 60 °C.
With `O=S(=O)(NCCO)c1ccccc1` [1a, N-(2-Hydroxyethyl)benzene Sulfonamide] the melting point was 78 to 79 °C.
Work on `CC(C)(C)c1ccc(S(=O)(=O)NCCCCCCO)cc1` [53a, 4-(tert-Butyl)-N-(6-hydroxyhexyl)benzene Sulfonamide] yielded a melting point of 53 to 54 °C.
Work on `Cc1ccccc1S(=O)(=O)NCCO` [26a, N-(2-Hydroxyethyl)-2-methylbenzene Sulfonamide] yielded a melting point of 73 to 74 °C.
Work on `Cc1ccc(S(=O)(=O)NCCCCCCO)cc1` [16a, N-(6-Hydroxyhexyl)-4-methylbenzene Sulfonamide] yielded a melting point of 49 to 51 °C.
Molecule `O=S(=O)(NCCCCCCCCCCCO)c1ccccc1` [10a, N-(11-Hydroxyundecyl)benzene Sulfonamide] has a melting point of 58 to 59 °C.
Molecule `CC(C)(C)c1ccc(S(=O)(=O)NCCCCCCCCCO)cc1` [56a, 4-(tert-Butyl)-N-(9-hydroxynonyl)benzene Sulfonamide] has a melting point of 69 to 70 °C.
Molecule `CC(C)(C)c1ccc(S(=O)(=O)NCCO)cc1` [49a, 4-(tert-Butyl)-N-(2-hydroxyethyl)benzene Sulfonamide] has a melting point of 75 to 77 °C.
`CC(C)(C)c1ccc(S(=O)(=O)NCCCCCCCCO)cc1` [55a, 4-(tert-Butyl)-N-(8-hydroxyoctyl)benzene Sulfonamide] gave a melting point of 69 to 71 °C.
`O=S(=O)(NCCCCCCCCCCO)c1ccc(C23CC4CC(CC(C4)C2)C3)cc1` [79a, 4-(Adamantan-1-yl)-N-(10-hydroxydecyl)benzene Sulfonamide] gave a melting point of 76 to 79 °C.
Work on `O=S(=O)(NCCCCCCCCCO)c1ccc(C23CC4CC(CC(C4)C2)C3)cc1` [78a, 4-(Adamantan-1-yl)-N-(9-hydroxynonyl)benzene Sulfonamide] yielded a melting point of 84 to 85 °C.
Molecule `Cc1ccc(S(=O)(=O)NCCCCO)cc1` [14a, N-(4-Hydroxybutyl)-4-methylbenzene Sulfonamide] has a melting point of 50 to 51 °C.
`CC(C)(C)c1ccc(S(=O)(=O)NCCCCCO)cc1` [52a, 4-(tert-Butyl)-N-(5-hydroxypentyl)benzene Sulfonamide] gave a melting point of 53 to 54 °C.
Molecule `CC(C)(C)c1ccc(S(=O)(=O)NCCCCCCCO)cc1` [54a, 4-(tert-Butyl)-N-(7-hydroxyheptyl)benzene Sulfonamide] has a melting point of 51 to 52 °C.
`O=S(=O)(NCCCCCCCCCCCCO)c1ccccc1` [11a, N-(12-Hydroxydodecyl)benzene Sulfonamide] showed a melting point of 76 to 77 °C.
`Cc1ccc(S(=O)(=O)NCCCCCO)cc1` [15a, N-(5-Hydroxypentyl)-4-methylbenzene Sulfonamide] showed a melting point of 60 to 61 °C.
`O=S(=O)(NCCCCCCO)c1ccc(C2CCCCC2)cc1` [72a, 4-Cyclohexyl-N-(6-hydroxyhexyl)benzene Sulfonamide] gave a melting point of 87 to 88 °C.
For `O=S(=O)(NCCCCCCO)c1ccccc1` [5a, N-(6-Hydroxyhexyl)benzene Sulfonamide], the melting point was 40 to 42 °C.
